The structures appear in SMILES notation. Structures can show the parent of a compound that is named as a salt.

This experiment concerns LDL receptor mRNA. The experiment is described as follows: LDL receptor mRNA levels in rat livers (Northern blot, β-actin as internal standard). Particulars: rat liver, 30 mg/kg, 6 hours after administration; untreated control = 100%. Type of experiment: in vivo. On the procedure: To test the ability of the inventive compounds to lower plasma lipid levels, the stimulation of LDL receptor mRNA production was chosen as a surrogate. Thus, in rat livers, within a few hours the LDL receptor mRNA levels are increased by the compounds of the formula I (Table I). The stimulation is in the range from 170 to 350% of the controls (control=100%).
The preparation of the mRNA was carried out according to the method of Chomczynski, P. and Sacchi, N., Anal. Biochem. 162, 156-159 (1987). In organs (such as, for example, liver), the deep-frozen tissue was homogenized on dry ice beforehand in a mortar and the mRNA was further enriched by means of Oligo dT according to standard methods (cf. Sambrook, J., Fritsch, E. F. and Maniatis, T., Molecular Cloning, second Edition, Cold Spring Harbor (1989); in this collection of methods, there are also descriptions of all further relevant molecular biology standard methods used here). Five to […] of the dissolved mRNA thus obtained were denatured according to standard methods and separated on 1% horizontal agarose gels. The mRNA was transferred to Hybond N membranes (Amersham) by means of capillary blot. The specific hybridization probe used was a partial LDL receptor cDNA clone and the internal standard a plasmid which contained a β-actin gene. Both plasmids were labeled by means of a random primer kit from Amersham up to a specific activity of 5×10^9 cpm/mg. Prehybridization, hybridization and washing of the filters were carried out by standard methods. The filters were then exposed at -70° C. on Cronex 4 films (Dupont) overnight up to 14 days in the presence of an intensifying screen and the hybridization signals were quantified using a commercial laser densitometer by means of the film-blackening intensity. The quotient of the intensity of the LDL receptor band and of the actin band was then determined as an internal standard to correct yield variations.
Liver tissue was removed and shock-frozen in liquid nitrogen. The mRNA was then isolated as described, and the relative LDL receptor mRNA levels were determined by means of the Northern blot technique. The mRNA levels of untreated control animals were set at 100%, and the stimulation of the LDL receptor mRNA in percent of the control was calculated.

As for `CCN(C(=O)c1cnc(N2CC(C)(C)NC2=O)nc1N)c1cccc(OC(F)(F)F)c1` [Example 3, 4-Amino-2-(4,4-dimethyl-2-oxo-1-imidazolidin-2-on-1-yl)-5-[N-ethyl-N-(3-trifluoromethoxy)phenyl]pyrimidinecarboxamide hydrochloride], the “LDL receptor mRNA (stimulation in percent of the control)” value amounted to 235%.

As to `CC1(C)CN(c2ncc(C(=O)N(CC(F)(F)F)c3cccc(OC(F)(F)F)c3)c(N)n2)C(=O)N1` [Example 4, 4-Amino-2-(4,4-dimethylimidazolidin-2-on-1-yl)-5-[N-(2,2,2-trifluoroethyl)-N-(3-trifluoromethoxyphenyl)]-pyrimidinecarboxamide], the “LDL receptor mRNA (stimulation in percent of the control)” value amounted to 230%.

Consider `CC1(C)CN(c2ncc(C(=O)Nc3cccc(SC(F)(F)F)c3)c(N)n2)C(=O)N1` [Example 22, 4-Amino-2-(4,4-dimethylimidazolidin-2-on-1-yl)-5-[N-(3-trifluorothiomethyl-phenyl)]pyrimidinecarboxamide-hydrochloride], for which the “LDL receptor mRNA (stimulation in percent of the control)” value amounted to 235%.

As to `CC1(C)CN(c2ncc(C(=O)Nc3ccc4c(c3)OC(F)(F)C(F)(F)O4)c(N)n2)C(=O)N1` [Example 15, 4-Amino-2-(4,4-dimethylimidazolidin-2-on-1-yi)-5-[N-(2,2,3,3-tetrafluorobenzo-1,4-dioxan-6-yl)]-pyrimidinecarboxamide hydrochloride], the “LDL receptor mRNA (stimulation in percent of the control)” value is recorded as 242%.

For `CC1(C)CN(c2ncc(C(=O)Nc3cccc(OC(F)(F)F)c3)c(N)n2)C(=O)N1` [Example 2, 4-Amino-2-(4,4-dimethylimidazolidin-2-on-1-yl)-5-(3-trifluoromethoxyphenylpyrimidine)carboxamide], the “LDL receptor mRNA (stimulation in percent of the control)” value was 250%.

Regarding `CC1(C)CN(c2ncc(C(=O)Nc3ccc4c(c3)OC(F)(F)O4)c(N)n2)C(=O)N1` [Example 14, 4-Amino-2-(4,4-dimethylimidazolidin-2-on-1-yl)-5-[N-(2,2-difluorobenzo-1,3-dioxol-5-yl)]pyrimidinecarboxamide-hydrochloride], the “LDL receptor mRNA (stimulation in percent of the control)” value worked out at 250%.

Values taken from patent US5939424A, “Compounds for treating disorders of lipid metabolism and their preparation” (Hoechst Aktiengesellschaft, priority 1996, dated 1999).
